Assays:
[1] = system: α1 adrenergic receptor; experiment: in vitro binding to alpha1-adrenergic receptors (3H-WB4101 or 3H-prazosin displacement), rat brain homogenates; settings: for % Inhibition of the specific binding for α1 receptor, Ligand WB / % Inhibition of the specific binding for α1 receptor, Ligand PRA: compd. conc. 10^-6 M, rat brain homogenates; for % Inhibition of the specific binding for α1 receptor, Ligand WB: ligand 3H-WB4101 1.6 nM; for % Inhibition of the specific binding for α1 receptor, Ligand PRA: ligand 3H-prazosin 0.2 nM; for Ki: ligand 3H-prazosin, Cheng and Prusoff, read-out: α1 receptor Ki value, ligand PRA
Protocol: Table II summarizes the binding activities for α1 and α2 adrenergic receptors of the compounds tested. The activity of the compounds according to the invention with respect to binding of the α-adrenergic receptors was determined in vitro according to a method derived from the works of B. R. Rouot, et al., Life Sci., 25, 769 (1979) of D. U'Prichard, et al., Mol. Pharmacol., 13, 454 (1977) and of P. Greengrass, et al., European J. Pharmacol., 55, 323, 1979. This method measures the binding to the receptor on rat brain homogenates by marking by means of a specific tritiated ligand placed in competition with the product to be tested. In the present case the binding, to the α1 -adrenergic receptors was measured by use of 1.6 nM of H-WB 4101 (WB) and 0.2 nM --H--prazosin (PRA). The binding to the α2-adrenergic receptors was determined by uses of 0.7 nM of ^3 H-p-aminoclonidine (PAC). The non-specific binding was determined by use of 1,000 nM of phentolamine. Results are given in Table II with columns 2 and 3 expressed in terms of percentage of inhibition of the specific binding at 10^-7 molar and 10^-6 molar compound concentration.
In Table III, columns 2 and 3 show the pKi values (pKi=-log inhibition constant) for respecively the α1 receptor (ligand ^3 H-prazosin) and the α2 receptor (ligand ^3 H-p-aminoclonidine), calculated according to the equation of Cheng and Prusoff: [formula] wherein: Ki represents the inhibition constant;
IC50 represents the concentration of the test compound providing 50% inhibition of the specific binding;
(§1) KD represents the dissociation constant of the ^3 H-ligand in the test mixture
(§2) [L*] represents the concentration of the ^3 H-ligand in the test mixture.

[2] = target: T1, α2 adrenergic receptor (Rattus norvegicus, UniProt P22909); experiment: in vitro binding to alpha2-adrenergic receptors (3H-p-aminoclonidine displacement), rat brain homogenates; settings: for Ki: ligand 3H-p-aminoclonidine, Cheng and Prusoff, read-out: α2 receptor Ki value, ligand PAC; for inhibition at 0.1 µM: compd. conc. 10^-7 M, ligand 3H-p-aminoclonidine 0.7 nM, rat brain homogenates, read-out: % Inhibition of the specific binding for α2 receptor, Ligand PAC; for affinity for α2 receptors in the in vitro binding assay (in words): rat brain, result in words; for α2-receptor binding affinity for the aminoclonidine ligand relative to the ortho-pyridyl compound (Compound 3): para- and meta-pyridyl compounds versus ortho-pyridyl compound, Table III column 3
T1 construct: rat brain homogenates; from tissue; host or cells: rat brain homogenate
T1 sequence (P22909 1-465): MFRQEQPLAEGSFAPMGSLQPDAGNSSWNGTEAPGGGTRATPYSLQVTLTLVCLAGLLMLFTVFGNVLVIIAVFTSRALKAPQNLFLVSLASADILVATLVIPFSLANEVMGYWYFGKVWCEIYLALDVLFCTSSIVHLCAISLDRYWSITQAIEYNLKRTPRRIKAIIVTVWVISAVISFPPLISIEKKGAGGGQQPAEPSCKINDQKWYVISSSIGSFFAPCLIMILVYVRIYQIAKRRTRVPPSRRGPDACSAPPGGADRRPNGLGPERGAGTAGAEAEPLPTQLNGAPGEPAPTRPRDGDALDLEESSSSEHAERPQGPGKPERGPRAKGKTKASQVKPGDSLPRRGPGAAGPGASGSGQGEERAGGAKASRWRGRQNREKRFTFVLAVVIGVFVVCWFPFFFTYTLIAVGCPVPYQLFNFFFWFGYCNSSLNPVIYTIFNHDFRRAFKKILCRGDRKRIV
Protocol: (§3) This method measures the binding to the receptor on rat brain homogenates by marking by means of a specific tritiated ligand placed in competition with the product to be tested. […] The binding to the α2-adrenergic receptors was determined by uses of 0.7 nM of ^3 H-p-aminoclonidine (PAC). The non-specific binding was determined by use of 1,000 nM of phentolamine.
as §1, §2

[3] = system: α2 adrenergic receptor; experiment: as above; settings: ratio of Ki, ligand PRA (α1) / ligand PAC (α2)
Protocol: as §3, §1, §2

[4] = system: clonidine-induced depression of locomotor activity (α2 agonist effects); experiment: open field test, antagonism of clonidine-induced depression of locomotor and rearing activity; type: in vivo, mouse; settings: 3 mg/kg p.o.; for Open field test % inhibition of clonidine hypomobility, Locomotion / Open field test % inhibition of clonidine hypomobility, Rearing: 1 h before clonidine 150 μg/kg i.p., mouse
Protocol: This study involved clonidine α2 agonist effects on central control of locomotor activity. Clonidine inhibits locomotor activity and rearing activity in the mouse. In this "open field" test, mice were pretreated with the compounds of the present invention at a dose of 3 mg/kg p.o. (n=4 to 8), one hour prior to intraperitoneal administration of clonidine in solution (150 μg/kg, i.p.). Ninety minutes after the clonidine administration the animals were placed in a rectangular "open field" of 47×53 cm, having a floor divided into 36 boxes of about 8×9 cm. The number of boxes through which the animal goes in 3 minutes and the number of rearing episode were noted.

[5] = acute toxicity after oral administration to mice (LD50); settings: mouse, in vivo, mortality recorded for 15 days
Protocol: The acute toxicity of the compounds of the present invention was studied after oral administration to mice. The products to be tested, suspended in a 1% tragacanth gum mucilage, were administered by means of an intragastric probe to groups of three male mice which had fasted since the preceding day. The doses tested are a function of the effect observed and can vary from 3,000 to 3 mg/kg or less. The mortality was recorded for 15 days. The lethal dose for 50% of the animals (LD50) was calculated according to the method of J. Litchfield and F. Wilcoxon, J. Pharmacol. Exp. Ther., 96, 99 (1949) and expressed in mg/kg. The effect of the products on the behavior of the animals was observed during a 5-to-6 hour period after the treatment indicated above and after 24 hours, using a method derived from that of S. Irwin, described by R. A. Turner, Screening Methods in Pharmacology, Chapter 3, pages 22-34, Academic Press, 1965. If anomalies were noted, the observation was prolonged and smaller doses were tested. The compounds of the present invention have been subjected to a series of in vitro and in vivo tests to determine their biological activity and therapeutic utility. The essential activity of importance resides in the α2 receptor antagonistic activity. […]

[6] = target: T2, α2 adrenergic receptors (Cavia porcellus, UniProt Q60474); experiment: isolated guinea pig ileum, α2 antagonistic and α2 agonistic activity (clonidine inhibition of electrically induced contractions)
T2 construct: upon isolated organs according to a model described by G. Drews; from tissue; host or cells: isolated guinea pig ileum
T2 sequence (Q60474 1-464): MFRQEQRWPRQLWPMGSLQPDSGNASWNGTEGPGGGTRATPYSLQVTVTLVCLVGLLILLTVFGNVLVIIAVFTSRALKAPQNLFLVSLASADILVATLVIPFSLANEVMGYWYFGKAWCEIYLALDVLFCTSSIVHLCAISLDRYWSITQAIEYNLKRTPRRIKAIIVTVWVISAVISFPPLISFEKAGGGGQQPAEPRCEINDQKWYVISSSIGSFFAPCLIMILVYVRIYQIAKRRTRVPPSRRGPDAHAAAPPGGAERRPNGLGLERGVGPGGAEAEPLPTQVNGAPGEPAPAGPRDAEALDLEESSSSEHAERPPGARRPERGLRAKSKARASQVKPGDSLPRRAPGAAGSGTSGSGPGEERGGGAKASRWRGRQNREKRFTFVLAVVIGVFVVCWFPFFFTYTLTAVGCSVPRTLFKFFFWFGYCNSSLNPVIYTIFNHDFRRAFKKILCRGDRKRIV
Protocol: In Table IV, columns 3 and 4 summarize the in vitro activities of the compounds evaluated in a guinea pig ileum model. Column 5 summarizes the α2 antagonistic effects of the compounds in an in vivo animal model. The α2 antagonistic and α2 agonistic activities of the compounds according to the invention were determined upon isolated organs according to a model described by G. Drews, Br. J. Pharmaco., 64, 293-300 (1978). This model was based upon the principle that the stimulation of the cholinergic nervous transmissions of the guinea pig ileum causes the liberation of acetyl choline, which in turn causes contractions of the ileum. The stimulation of the α2 -adrenergic receptors inhibits the activity of the cholinergic nerves and consequently reduces all responses due to the latter. Thus the contractions of the ileum induced by electric stimulation are inhibited by clonidine, an α2 agonist, in proportion to the dose. This inhibition was selectively displaced by α2 antagonists and not by α1 antagonists. The method used can be summarized as follows. Three dose-response curves to clonidine were established at an interval of 60 minutes. […] The dose-response curves were calculated as a percentage of the maximum inhibition obtained for the first curve. […] The α2 antagonist activity, expressed in pA2 value shown in column 3 of Table IV, was calculated according to J. M. Van Rossum, Arch. […]

| Compound | % Inhibition of the specific binding for α1 receptor, Ligand WB [1] [%] | % Inhibition of the specific binding for α1 receptor, Ligand PRA [1] [%] | Ki [1] [nM] | Ki [2] [nM] | Selectivity of α1/α2 affinity (Kiα1/Kiα2) [3] | Open field test % inhibition of clonidine hypomobility, Locomotion [4] [%] | Open field test % inhibition of clonidine hypomobility, Rearing [4] [%] | inhibition at 0.1 µM [2] [%] | affinity for α2 receptors in the in vitro binding assay (in words) [2] | α2-receptor binding affinity for the aminoclonidine ligand relative to the ortho-pyridyl compound (Compound 3) [2] | antagonism of clonidine-induced depression of locomotor and rearing activity (in words) ([4]; mouse open field, result in words) | LD50 at 360 h [5] [mg/kg] | Kb ([6]; against clonidine, read-out: α2 antagonist activity pA2 (converted)) [nM] | EC50 ([6]; pD2 = -log ED50, 50% of maximum inhibition obtained with clonidine, read-out: α2 agonist activity pD2 (converted)) [nM] |
| --- | --- | --- | --- | --- | --- | --- | --- | --- | --- | --- | --- | --- | --- | --- |
| c1ccc(C(Cc2c[nH]cn2)c2ccccc2)cc1 [CC, reference compound] | 21 | 27 | 660 | 7.8 | 85 | 100 | 100 | – | – | – | – | – | – | – |
| c1ccc(C(Cc2c[nH]cn2)c2ccncc2)cc1 (stereo not drawn) [Compound 1, 4(5)-[2-phenyl-2-(4-pyridinyl)-ethyl]-imidazole] | 2 | 14 | 13400 | 4.6 | 2900 | 90 | 80 | 91 | high affinity for α2 receptors | fifteen times higher | very active in this test | – | – | – |
| c1ccc(C(Cc2c[nH]cn2)c2cccnc2)cc1 (stereo not drawn) [Compound 2, 4(5)-[2-phenyl-2-(3-pyridinyl)-ethyl]-imidazole] | 7 | 10 | 2600 | 4.8 | 540 | – | – | 94 | high affinity for α2 receptors | fifteen times higher | – | ~175 | – | – |
| c1ccc(C(Cc2c[nH]cn2)c2ccccn2)cc1 (stereo not drawn) [Compound 3, 4(5)-[2-phenyl-2-(2-pyridyl)-ethyl]-imidazole] | 0 | – | – | 73 | – | – | – | 40 | – | – | – | 130 | 50.1 | 100000 |
